{"source": "patent US20190125864A1", "about": "“COMBINATION THERAPY OF RAMUCIRUMAB AND ABEMACICLIB FOR USE IN TREATMENT OF MANTLE CELL LYMPHOMA” (Eli Lilly and Company, priority 2016, published 2019)", "test_system": "human Mino xenografts", "experiment": "IVEF study: growth inhibition of subcutaneous Mino xenografts (mantle cell lymphoma) in mice", "type": "in vivo", "details": "for % ΔT/C: day 53, baseline day 32", "procedure": "This study evaluates the overall sensitivity of the Mino xenograft model for mantle cell lymphoma (MCL) to growth inhibition by abemaciclib. Accordingly, mice are implanted subcutaneously with human Mino xenografts treated once-daily for 28 days (QD×28) with 25 or 50 mg/kg of abemaciclib monomesylate (“compound”). In addition the response of this model to single-agent DC101, an antibody inhibitor of VEGFR2, is also evaluated as well as the combination of this antibody with abemaciclib. DC101, which is a mouse surrogate of ramucirumab, is evaluated in these studies at a dose of 20 mg/kg given twice-weekly over a period of 4 weeks (BIW×4) whereas mice in the combination group are given this dose of DC101 plus 25 mg/kg of abemaciclib. Tumor volume measurements are taken periodically to determine the effects of the various treatments on tumor growth and periodic body weight measurements are used as a general indicator of tolerability.\nFemale Fox Chase CB17SCID (Harlan Laboratories) mice are used for these studies. The animals are housed until they reach 18-20 […] in size.\nThe compound is formulated in 1% hydroxyethyl cellulose (HEC) in 25 mM phosphate buffer (PB) pH=2. The compound is formulated on a weekly basis and stored at 4° C. For the efficacy studies, the compound is administered by oral gavage once-daily for 28 days (PO, QD×28) at doses of 25 or 50 mg/kg using 0.2 ml/dose beginning on day 33 after tumor implantation. The control group is given 1% HEC vehicle according to the same schedule for the compound. The mouse surrogate for ramucirumab known as DC101 is formulated in phosphate buffered saline (PBS) and is given twice-weekly (BIW) for 4 weeks as an intraperitoneal (IP) injection at a dose of 20 mg/kg beginning on day 34. Mice in the combination group are given 25 mg/kg of the compound and 20 mg/kg of DC101 following the schedules outlined above for the monotherapy groups.\nThe human MCL line Mino is grown in RPMI 1640 medium+20% fetal bovine serum (FBS). Sub-confluent cells are harvested and rinsed twice with Hank's balanced saline solution (HBSS) without serum. For subcutaneous tumors, growth is initiated by subcutaneous injection of 5×10^6 cells in a 1:1 mixture of HBSS and MATRIGEL® (BD Bioscience, Franklin Lakes, N.J.) in the rear flank of each subject animal. When mean tumors volumes reach approximately 150 mm^3 in size, the animals are randomized by tumor size and body weight using a proprietary block randomization allocation tool and placed into their respective treatment groups using 7 animals per group.\nTumor size and body weight are captured using WEB DIRECTOR™. Tumor volume (V) is estimated by using the formula: V=0.536L×W^2 where L=larger of measured diameter and W=smaller of perpendicular diameter. The tumor volume data is transformed to a log scale to equalize variance across time and treatment groups. The log volume data ae analyzed with a two-way repeated measures analysis of variance by time and treatment using the MIXED procedures in SAS software (Version 9.3). The correlation model for the repeated measures is Spatial Power. Treated groups are compared to the control group at each time point. The MIXED procedure is also used separately for each treatment group to calculate adjusted means and standard errors at each time point. Both analyses accounted for the autocorrelation within each animal and the loss of data that occur when animals with large tumors are removed from the study early. The adjusted means and standard errors are plotted for each treatment group versus time.\nRelative changes in tumor volume (% ΔT/C) are calculated using the tumor volume measurements taken on the day (day 53) when the control group has to be sacrificed due to tumor sizes that exceeded the threshold defined by ethical guidelines. […]", "data": [{"smiles": "CCN1CCN(Cc2ccc(Nc3ncc(F)c(-c4cc(F)c5nc(C)n(C(C)C)c5c4)n3)nc2)CC1", "note": "[Compound, [5-(4-ethyl-piperazin-1-ylmethyl)-pyridin-2-yl]-[5-fluoro-4-(7-fluoro-3-isopropyl-2-methyl-3H-benzoimidazol-5-yl)-pyrimidin-2-yl]-amine]", "values": [{"measurement": "% ΔT/C", "setting": "25 mg/kg Compound PO QD×28, 25 mg/kg", "result": 5.2, "unit": "%"}, {"measurement": "% ΔT/C", "setting": "25 mg/kg Compound PO QD×28, listed as compound, 25 mg/kg", "result": "approximately 5%"}, {"measurement": "% ΔT/C", "setting": "50 mg/kg Compound PO QD×28, negative value = % regression", "result": "−63.6", "unit": "%"}, {"measurement": "Mean Tumor Volume", "setting": "day 53, 25 mg/kg Compound PO QD×28, CB17SCID mice, subcutaneous Mino xenografts", "result": 317.4, "unit": "mm^3"}, {"measurement": "Mean Tumor Volume", "setting": "day 53, 50 mg/kg Compound PO QD×28, CB17SCID mice, subcutaneous Mino xenografts", "result": 55.4, "unit": "mm^3"}, {"measurement": "mice achieved a partial response (PR)", "setting": "day 53, 50 mg/kg abemaciclib, 7 of 7 mice", "result": 100, "unit": "%"}, {"measurement": "mean tumor volume reduced (regression)", "setting": "day 53, 50 mg/kg compound", "result": 64, "unit": "%"}, {"measurement": "Mean Tumor Volume", "setting": "day 60 (last day of dosing), 25 mg/kg Compound PO QD×28", "result": 348.6, "unit": "mm^3"}, {"measurement": "Mean Tumor Volume", "setting": "day 60 (last day of dosing), 50 mg/kg Compound PO QD×28", "result": 37.9, "unit": "mm^3"}]}]}
